Laboratory results as given in US20240269158A1, “THERAPEUTIC AGENTS AND METHODS FOR TREATMENT OF BARTONELLOSIS” (THE ADMINISTRATORS OF THE TULANE EDUCATIONAL FUND, priority 2021, published 2024).
Values after ≈ are worked out from the molar mass of the structure shown. Read-outs that look alike come from different tables or passages of the source.

Experiments:
B. henselae = assay: Cell-free, liquid culture MBC assay; assay type: cell-based, Bartonella henselae; conditions: 96 hrs, plated on blood agar
Experimental: (§1) The B. henselae strains used were San Antonio 2, 267HO04, a human clinical isolate and B. vinsonii subsp. berkhoffii. Both the bacteria were initially grown on tryptic soy agar (TSA) supplemented with 5% defibrinated sheep blood plates that were either pre-made (Remel, R01198) or homemade, in a humidified atmosphere at 37° C. with 5% CO2 for 7 days. For the preparation of liquid cultures, an individual well-grown colony from the plate was resuspended in 15 ml Falcon tubes containing 3 mL of either Schneider's insect media supplemented with 10% FBS, or Grace's insect media (Gibco, 11605-094) supplemented with 10% FBS, or BAPGM serum-free liquid media. The cultures grew for 7 more days in the atmosphere as above without shaking. The number of viable bacteria was determined by either plating serial dilutions of the culture on plates for CFU or by live/dead staining. Before every experiment, bacteria were mixed well and passed through 22-gauge needle to break large clumps of bacteria.
(§2) Briefly, the bacterial culture that was treated with therapeutic agents for 96 hrs was collected into a 1.5 ml microcentrifuge tubes and centrifuged at 7000 rpm for 10 min. The supernatant was removed, and the bacterial pellet was washed with 1×PBS twice. The bacterial pellet was then resuspended in 100 μL of 1×PBS, plated onto blood agar plates and incubated at 37° C. with 5% CO2 for about 14 days. This assay was repeated three times with all the 6 different antibiotics (azlocillin, azithromycin, ceftriaxone, doxycycline, gentamicin and ampicillin) and at different concentrations.
(§3) Therapeutic agent stocks were prepared in the following solvents: 10 mg/ml of ceftriaxone (USP), doxycycline (Fisher scientific, D9891-1G), gentamicin (Fisher scientific, 1405-41-0), ampicillin (Fisher scientific, 69-52-3) and azlocillin (Flightpath) in sterile cell culture grade water, whereas 5 mg/ml of azithromycin (Sigma, PZ0007-5MG) was dissolved in sterile cell culture grade DMSO. Antibiotics were then aliquoted and stored at either −80° C. or −20° C. until further use. On the day of assay, these stock concentrations were diluted to 1 mg/ml and 100 μg/ml in the respected bacterial culture media for MIC and cell-free, liquid culture MBC assays. For the DH82 cell-based MBC assay, antibiotics were diluted in EMEM media supplemented with 15% heat inactivated FBS.
For this assay, both B. henselae and B. vinsonii were grown in Grace's insect media and were tested against all of the 6 antibiotics (ceftriaxone, doxycycline, gentamicin, azithromycin, azlocillin, ampicillin).

B. vinsonii [1] = assay: Cell-free, liquid culture MBC assay; assay type: cell-based, B. vinsonii subsp. berkhoffii; conditions: 96 hrs, plated on blood agar
Experimental: as §1, §2, §3
For this assay, both B. henselae and B. vinsonii were grown in Grace's insect media and were tested against all of the 6 antibiotics (ceftriaxone, doxycycline, gentamicin, azithromycin, azlocillin, ampicillin). […] However, ceftriaxone, gentamicin, azithromycin, and azlocillin were all bactericidal and completely eliminated the growth at concentrations below 10 µg/ml. Table 2 provides comparison of MBCs for B. henselae and B. vinsonii strains in cell-free liquid culture medium determined by incubating the bacteria with antibiotics in a 96-well plate and plating on tryptic soy agar supplemented with 5% sheep blood. Additionally, MBC for B. henselae determined by DH82 cell-based assay (right column) is provided.

[2] = system: B. henselae and B. vinsonii; assay: MIC assay, summary over both species; assay type: cell-based, Bartonella; conditions: BAPGM and Grace's liquid media
Experimental: (§4) Optical density (OD) of 7-day old bacterial liquid culture that was grown from an individual colony was measured using a spectrophotometer (Bio-Rad, SmartSpec 300, 170-2501). Bacterial culture was then diluted down to an OD of 0.1 ? 3×10^8 cfu/ml with the respective media.
(§5) To determine the MIC of the antibiotics and for the visualization of the bacterial growth, a clear 96-well plate was used. Into each well of a 96-well plate, 50 μl of the 0.1 OD bacterial culture and 50 μl of the liquid media containing antibiotics were added to the wells bringing the total volume to 100 μl of 0.05 OD bacteria (CFU ? 1.5×10^7) in each well. Wells containing only bacteria with solvent used in the dilution of the antibiotics served as a positive control to verify the growth of bacteria. As a negative control, wells containing only media and solvents were used. Each concentration of diluted antibiotic was run in 4 replicates to minimize the error rate. The 96-well plate was covered with the lid and incubated at 37° C. with 5% CO2. OD of the culture was read after 48 hrs and 96 hrs using a hybrid multi-mode microplate reader (Biotek, Synergy H4 hybrid reader) at OD600. The assay was repeated three times.
The determination of susceptibility to therapeutic agents was performed in liquid culture media. Six different therapeutic agents were tested with multiple different concentrations against B. henselae and B. vinsonii. Therapeutic agent concentrations tested were as follows: Ceftriaxone 0.001, 0.01, 0.1, 0.3, 0.5, 1, 2, and 5 μg/ml; doxycycline 0.001, 0.01, 0.1, 0.3, 0.5, 1, 2, 5, and 10 μg/ml, gentamicin: 0.01, 0.1, 0.3, 0.5, 1, 2, 4, 8, and 16 μg/ml, and azithromycin: 0.001, 0.005, 0.02, 0.1, 0.3, 0.5, 1, 2, 5, and 10 μg/ml, were tested based on previous antibiotic susceptibility studies. The following azlocillin dilutions were included: 0.001, 0.005, 0.01, 0.02, 0.5, 1, 2, and 5 μg/ml. The ampicillin dilutions included were as follows: 0.001, 0.005, 0.01, 0.02, 0.5, 1, 2, 4, and 8 μg/ml. Both the species of Bartonella were susceptible to all the antibiotics that were used in BAPGM and Grace's culture liquid mediums. MICs ranged from 0.01 to 0.1 μg/ml for ceftriaxone, doxycycline, and ampicillin, 2.0-4.0 μg/ml for gentamicin, 0.1-0.5 μg/ml for azithromycin, and 0.001-0.01 μg/ml for azlocillin. […] However, both the bacteria were not susceptible towards any of the antibiotics when tested in Schneider's insect medium (Table 1).

B. vinsonii [3] = assay: MIC assay in liquid culture media (OD600); assay type: cell-based, B. vinsonii subsp. berkhoffii; conditions: Grace's insect media
Experimental: as §1, §4, §5, §3
The determination of susceptibility to therapeutic agents was performed in liquid culture media. Six different therapeutic agents were tested with multiple different concentrations against B. henselae and B. vinsonii. Therapeutic agent concentrations tested were as follows: Ceftriaxone 0.001, 0.01, 0.1, 0.3, 0.5, 1, 2, and 5 μg/ml; doxycycline 0.001, 0.01, 0.1, 0.3, 0.5, 1, 2, 5, and 10 μg/ml, gentamicin: 0.01, 0.1, 0.3, 0.5, 1, 2, 4, 8, and 16 μg/ml, and azithromycin: 0.001, 0.005, 0.02, 0.1, 0.3, 0.5, 1, 2, 5, and 10 μg/ml, were tested based on previous antibiotic susceptibility studies. The following azlocillin dilutions were included: 0.001, 0.005, 0.01, 0.02, 0.5, 1, 2, and 5 μg/ml. The ampicillin dilutions included were as follows: 0.001, 0.005, 0.01, 0.02, 0.5, 1, 2, 4, and 8 μg/ml. Both the species of Bartonella were susceptible to all the antibiotics that were used in BAPGM and Grace's culture liquid mediums. […]

[4] = Bartonella henselae, read-out: MBC

Row | Molecule | MBC (B. henselae) | MBC (B. vinsonii [1]) | MICs ranged [2] | MIC (B. vinsonii [3]) | MBC (B. henselae; [4]) | MBC (B. vinsonii [1]; read-out: MBC) | MIC (B. vinsonii [3]; read-out: MIC) | susceptibility / inhibition of growth [2]
1 | gentamicin | 2.0 to 4.0 µg/mL | 4.0 to 8.0 µg/mL | 2.0 to 4.0 µg/mL | 2.0 to 4.0 µg/mL |  |  |  | 
2 | CO/N=C(\C(=O)N[C@@H]1C(=O)N2C(C(=O)O)=C(CSc3nc(=O)c(=O)[nH]n3C)CS[C@H]12)c1csc(N)n1 [Ceftriaxone, ceftriaxone] |  |  |  |  | 2 to 4 µg/mL (≈ 3.61 to 7.21 µM) | 0.5 to 1 µg/mL (≈ 0.902 to 1.8 µM) | 0 to 0.01 µg/mL | 
3 | CC1(C)S[C@@H]2[C@H](NC(=O)[C@H](NC(=O)N3CCNC3=O)c3ccccc3)C(=O)N2[C@H]1C(=O)O [Azlocillin, azlocillin] |  |  | 0.001 to 0.01 µg/mL |  | 1 to 2 µg/mL (≈ 2.17 to 4.33 µM) | 0.25 to 0.5 µg/mL (≈ 0.542 to 1.08 µM) | 0.001 to 0.005 µg/mL | most effective in inhibiting the growth of both the species of Bartonella
4 | CC[C@H]1OC(=O)[C@H](C)[C@@H](O[C@H]2C[C@@](C)(OC)[C@@H](O)[C@H](C)O2)[C@H](C)[C@@H](O[C@@H]2O[C@H](C)C[C@H](N(C)C)[C@H]2O)[C@](C)(O)C[C@@H](C)CN(C)[C@H](C)[C@@H](O)[C@]1(C)O [Azithromycin, azithromycin] |  |  | 0.1 to 0.5 µg/mL |  | 5 to 10 µg/mL (≈ 6.68 to 13.4 µM) | 2 to 5 µg/mL (≈ 2.67 to 6.68 µM) | 0.1 to 0.3 µg/mL | 
